Measured values from patent US9567371B2, “Short beta-defensin-derived peptides” (Yeda Research and Development Co. Ltd., priority 2009, dated 2017).
Peptide text beside a SMILES is read from it.

Experiments:
[1] = system: SDF-1; assay: SDF-1 plasma levels in injected mice (ELISA); type: in vivo, mouse; details: 5 mg/kg s.c., compared with mice injected with PBS
Protocol: (§1) SDF-1 levels in tested samples were determined by ELISA as described (Kalinkovich, A., et al., 2006) where the K15C monoclonal antibodies (mAb, INRA, Paris, France) recognizing the first three amino acids of SDF-1 were utilized as a capture Ab (10 μg/mL) in order to measure levels of intact, non-cleaved SDF-1. Levels of basic FGF (bFGF) and HGF in tested samples were determined by using corresponding capture mAbs and polyclonal biotynilated Abs (R&D Systems) as recommended by the manufacturer. In order to examine SDF-1, bFGF and HGF levels in cell supernatants, MS-5, MBA-15 and MG-63 cells were seeded in 24-well Costar wells and cultivated in RPMI 1640 or αMEM Eagle medium, respectively, with 10% FCS. When the cells reached confluence, the medium was changed to serum free medium and cells were cultivated for additional 6 hrs in the presence of various concentrations of the peptides. Medium samples were collected and centrifuged 10 min at 6000×g at 4° C. to remove cell debris. Supernatants were collected and kept at −70° C. until tested.

[2] = system: MBA-15 cells; assay: SDF-1, bFGF and HGF secretion by stromal cells (ELISA of supernatants); type: cell-based, mouse; details: 10 μM
Protocol: (§2) FIGS. 7A-7F. Effect of TL-1, AK-1 and cyclic TL-1 on SDF-1, bFGF and HGF secretion by different stromal cell lines. MS-5, MBA-15 and MG-63 cells were co-cultured with 10 μM TL-1, AK-1 or cyclic TL-1 in the serum free medium for 6 hrs, or without added peptide (UT). Levels of SDF-1 (A-C), bFGF (D) and HGF (E, F) were detected in the collected supernatants by ELISA. Data shown are the mean±SD of 2 separate experiments. *P<0.05 compared to control.
as §1
(§3) Because BM stromal cells, such as endosteal bone lining osteoblasts and endothelial cells are the main source of human and murine SDF-1, the capability of the peptides to affect SDF-1 secretion by mouse stromal MS-5 and MBA-15 cells, and human osteoblast MG-63 cells was examined.
(§4) In order to examine the capability of the peptides to induce secretion of other proteins, the levels of Hepatocyte growth factor (HGF) and Basic fibroblast growth factor (bFGF) were detected in the same supernatants.

[3] = system: MS-5 cells; assay: as above; type: cell-based, mouse; details: 10 μM, compared with untreated cells
Protocol: as §2, §1, §3, §4

[4] = system: G2 cells; assay: Transwell migration towards SDF-1; type: cell-based, human
Protocol: (§5) FIGS. 8A-8D. Effect of TL-1 and cyclic TL-1 on in vitro and in vivo cell migration. (A, C) Human CD3^+, G2, cord blood CD34^+ and peripheral blood mononuclear (PBMC) cells were preincubated with 1 and 10 μM TL-1 for 3 hrs in serum free medium, washed and allowed to migrate towards SDF-1. Migrated cells were collected and calculated by flow cytometry. Percentage of migrated cells is presented as compared to untreated (UT) control taken as 100%. (B) G2 cells were similarly preincubated with 10 μM TL-1 or cTL-1 for the indicated periods of time and percentage of migrated cells is depicted. (D) Homing assay. G2 cells were similarly preincubated with 10 μM TL-1 or cTL-1 for 3 hrs, washed and i.v. injected (10×10^6/mouse) to non-irradiated NOD/SCID mice. Percentage of G2 cells in the murine BM and spleens was determined by staining with anti-human CD45 Ab and compared with untreated (UT) cells. […]
FIGS. 9A-9B. […] Migrated cells were collected and calculated by flow cytometry. […]
Various cells (1×10^6/mL), untreated or pretreated with peptides for 3 hrs at 96-well flat bottom plates at 37° C. were washed, 2×10^5 cells/100 μL were added to the upper chambers of Costar 24-well transwell plates with 5 μm pore filters (Corning Inc., Corning, N.Y.) and allowed to migrate for 2-4 hrs at 37° C. […] Migrated cells were collected from the lower chambers and counted using a flow cytometer. […]

[5] = system: G2 cells and mouse BM MNC; assay: Chemotaxis assay (untreated cells migrate towards peptide in bottom chamber); type: cell-based; details: 1 and 10 μM peptide in bottom chamber, 4 hrs
Protocol: FIGS. 9A-9B. AK-1 increases SDF-1-induced migration and chemotaxis of G2 and mouse bone marrow mononuclear cells (BM MNC). (A) G2 cells and mouse BM MNC were preincubated with 1 and 10 μM AK-1 for 3 hrs in serum free medium, washed and allowed to migrate towards SDF-1. Migrated cells were collected and calculated by flow cytometry. Percentage of migrated cells is presented as compared to untreated control taken as 100%. (B) Untreated G2 cells and mouse BM MNC were put to the upper chambers of the transwell plates and allowed to migrate towards 1 and 10 μM AK-1 present the bottom chambers of the transwell plates for 4 hrs. Percentage of migrated cells is presented as compared to untreated (UT) control taken as 100%. Data shown are the mean±SD of 2 separate experiments. *P<0.05 compared to control.
Various cells (1×10^6/mL), untreated or pretreated with peptides for 3 hrs at 96-well flat bottom plates at 37° C. were washed, 2×10^5 cells/100 μL were added to the upper chambers of Costar 24-well transwell plates with 5 μm pore filters (Corning Inc., Corning, N.Y.) and allowed to migrate for 2-4 hrs at 37° C. (95% humidity, 5% CO2) spontaneously or towards 50 ng/mL SDF-1 (rhSDF-1, Peprotech, Rocky Hill, N.J.) in medium supplemented with 10% FCS. […] Migrated cells were collected from the lower chambers and counted using a flow cytometer. […]

[6] = system: G2 cells; assay: Homing assay of pretreated G2 cells in NOD/SCID mice; type: in vivo, mouse; details: 10 μM pretreatment 3 hrs, i.v. into non-irradiated NOD/SCID mice, 16 hrs
Protocol: as §5
G2 cells (10×10^6/mL) pretreated with the peptides for 3 hrs as described above, were injected i.v. into non-irradiated NOD/SCID mice, which were sacrificed 16 hrs later. Samples of BM cells flushed from both femur and tibia bones and spleen cell suspension were prepared, and the percentage of human cells was determined by staining with anti-human CD45-FITC mAb (ImmunoQuality Products, Groningen, The Netherlands) as described (Spiegel, A., et al., 2004).

N=C(N)NCCC[C@@H]1NC(=O)CNC(=O)[C@H](CCCNC(=N)N)NC(=O)[C@H](CCCCN)NC(=O)[C@H](CCCCN)NC(=O)[C@H](CCCNC(=N)N)NC(=O)[C@H](CCCNC(=N)N)NC(=O)[C@H](CS)NC(=O)[C@H](CS)NC(=O)[C@H](CCCCN)NC1=O [cyclic TL-1, 1,10-cyclo[RGRKCCRRKK]] (cyclo(CCRRKKRGRK))
SDF-1 plasma levels [1]: did not induce increase | HGF secretion into supernatants [2]: induced elevation | levels of SDF-1 in supernatants ([2]; compared with untreated cells): increased the levels of SDF-1 secretion by MS-5 and MBA-15 cells but much less as compared with TL-1 and AK-1 | levels of SDF-1 in supernatants [3]: increased the levels of SDF-1 secretion by MS-5 and MBA-15 cells but much less as compared with TL-1 and AK-1 | SDF-1-induced migration ([4]; 1 μM): ineffective | inhibition of SDF-1-induced migration ([4]; 10 μM): 2 fold | chemotaxis of untreated cells towards the peptide [5]: ineffective | homing of pretreated G2 cells to the BM [6]: decrease the homing | homing of pretreated G2 cells to the spleen [6]: decreased G2 cell homing
